Assay results taken from the supplement of paper PMC10733146.

Columns and labels:
Experiment in all cases: viability relative to DMSO control (fraction); higher = less drug effect (more viable cells)
Conditions in all cases: 48 h
[1] = compound: Cn1c(CCCC(=O)O)nc2cc(N(CCCl)CCCl)ccc21 [Bendamustine]
In short: (§1)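 Using 384-well plates with compounds already plated at five concentrations, one well per concentration, 4 × 10^4 primary mononuclear tumour cells were added per well. Cells were Ficoll-isolated from blood or bone marrow or came from processed lymph node, fresh or cryopreserved. They were kept for 48 h at 37 °C and 5% CO2 in RPMI-1640 supplemented with penicillin/streptomycin, L-glutamine and human serum, and viability was read as CellTiter-Glo luminescence relative to the median of 16 inner DMSO wells.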

[2] = compound: CC[C@]1(O)C[C@@H]2CN(CCc3c([nH]c4ccccc34)[C@@](C(=O)OC)(c3cc4c(cc3OC)N(C)[C@H]3[C@@](O)(C(N)=O)[C@H](O)[C@]5(CC)C=CCN6CC[C@]43[C@@H]65)C2)C1 [Vindesine]
In short: as §1

[3] = compound: COc1cc(C(=O)O)ccc1NC(=O)[C@@H]1N[C@@H](CC(C)(C)C)[C@](C#N)(c2ccc(Cl)cc2F)[C@H]1c1cccc(Cl)c1F [Idasanutlin (RS7388)]
In short: as §1

[4] = compound: CO[C@H]1C[C@@H]2CC[C@@H](C)[C@@](O)(O2)C(=O)C(=O)N2CCCC[C@H]2C(=O)O[C@H]([C@H](C)C[C@@H]2CC[C@@H](OCCO)[C@H](OC)C2)CC(=O)[C@H](C)/C=C(\C)[C@@H](O)[C@@H](OC)C(=O)[C@H](C)C[C@H](C)/C=C/C=C/C=C/1C [Everolimus]
In short: as §1

[5] = compound: CC[C@H](CO)Nc1nc(NCc2ccccc2)c2ncn(C(C)C)c2n1 [Roscovitine]
In short: as §1

[6] = compound: O=C(Nc1ccc2[nH]nc(-c3ccncc3)c2c1)[C@@H]1CCN(CC(=O)N2CCN(c3ccc(-c4ncccn4)cc3)CC2)C1
In short: as §1

[7] = compound: O=C(NO)c1cccc(C(=O)NCCc2ccccc2)c1
In short: as §1

[8] = compound: C[C@H]1C[C@@H](n2c(Nc3ccc(OC(F)(F)F)cc3)nc3cc(CCC(=O)O)ccc32)CC(C)(C)C1
In short: as §1

[9] = compound: O=C1CCC(N2C(=O)c3ccccc3C2=O)C(=O)N1 [Thalidomide]
In short: as §1

[10] = compound: c1cn2cc(-c3ccc4cn[nH]c4c3)nc(Nc3ccc(N4CCOCC4)cc3)c2n1 [Entospletinib]
In short: as §1

[11] = compound: CCNC(=O)C[C@@H]1N=C(c2ccc(Cl)cc2)c2cc(OC)ccc2-n2c(C)nnc21 [I-BET-762]
In short: as §1

[12] = compound: CCS(=O)(=O)N1CCC([C@@H](C)n2c(C)c(C(=O)NCc3c(OC)cc(C)[nH]c3=O)c3ccccc32)CC1 [CPI-169]
In short: as §1

[13] = compound: CC1(C)CCC(CN2CCN(c3ccc(C(=O)NS(=O)(=O)c4ccc(NCC5CCOCC5)c([N+](=O)[O-])c4)c(Oc4cnc5[nH]ccc5c4)c3)CC2)=C(c2ccc(Cl)cc2)C1 [Venetoclax]
In short: as §1

Test System primary FL patient cells (S087) has a viability ([1]; 0.032 µM) of 1.01, a viability ([1]; 0.16 µM) of 1 and a viability ([1]; 0.8 µM) of 0.984. For the same test system, the viability ([1]; 4 µM) was 0.99, the viability ([1]; 20 µM) was 0.786 and the viability ([2]; 0.016 µM) was 0.87. It also gave a viability ([2]; 0.08 µM) of 0.836, a viability ([2]; 0.4 µM) of 0.728 and a viability ([2]; 2 µM) of 0.737. The viability ([2]; 10 µM) was 0.637, the viability ([3]; 0.032 µM) was 0.834 and the viability ([3]; 0.16 µM) was 0.877. It also gave a viability ([3]; 0.8 µM) of 0.803, a viability ([3]; 4 µM) of 0.694 and a viability ([3]; 20 µM) of 0.671. For the same test system, the viability ([4]; 0.0032 µM) was 0.882, the viability ([4]; 0.016 µM) was 0.851 and the viability ([4]; 0.08 µM) was 0.859. For the same test system, the viability ([4]; 0.4 µM) was 0.846, the viability ([4]; 2 µM) was 0.867 and the viability ([5]; 0.032 µM) was 0.924. For the same test system, the viability ([5]; 0.16 µM) was 0.905, the viability ([5]; 0.8 µM) was 0.916 and the viability ([5]; 4 µM) was 0.9. For the same test system, the viability ([5]; 20 µM) was 0.798, the viability ([6]; 0.008 µM) was 0.961 and the viability ([6]; 0.04 µM) was 0.903. The viability ([6]; 0.2 µM) was 0.943, the viability ([6]; 1 µM) was 0.886 and the viability ([6]; 5 µM) was 0.851. The viability ([7]; 0.024 µM) was 1.02, the viability ([7]; 0.12 µM) was 0.957 and the viability ([7]; 0.6 µM) was 1.08. It also gave a viability ([7]; 3 µM) of 1.04, a viability ([7]; 15 µM) of 0.912 and a viability ([8]; 0.024 µM) of 0.885. It also gave a viability ([8]; 0.12 µM) of 0.938, a viability ([8]; 0.6 µM) of 0.904 and a viability ([8]; 3 µM) of 0.829. For the same test system, the viability ([8]; 15 µM) was 0.93, the viability ([9]; 0.032 µM) was 0.986 and the viability ([9]; 0.16 µM) was 0.925. It also gave a viability ([9]; 0.8 µM) of 0.951, a viability ([9]; 4 µM) of 0.996 and a viability ([9]; 20 µM) of 0.985. The viability ([10]; 0.024 µM) was 1.09, the viability ([10]; 0.12 µM) was 1.01 and the viability ([10]; 0.6 µM) was 1.04. It also gave a viability ([10]; 3 µM) of 1.06, a viability ([10]; 15 µM) of 1.02 and a viability ([11]; 0.008 µM) of 0.99. For the same test system, the viability ([11]; 0.04 µM) was 1.02, the viability ([11]; 0.2 µM) was 0.963 and the viability ([11]; 1 µM) was 0.901. The viability ([11]; 5 µM) was 0.837, the viability ([12]; 0.024 µM) was 0.99 and the viability ([12]; 0.12 µM) was 1.01. The viability ([12]; 0.6 µM) was 0.99, the viability ([12]; 3 µM) was 1 and the viability ([12]; 15 µM) was 0.955. For the same test system, the viability ([13]; 0.00064 µM) was 1.01, the viability ([13]; 0.0032 µM) was 0.938 and the viability ([13]; 0.016 µM) was 0.74. The viability ([13]; 0.08 µM) was 0.364 and the viability ([13]; 0.4 µM) was 0.0932.

primary MCL patient cells (S063) was tested, and the viability ([1]; 0.032 µM) was 0.975, the viability ([1]; 0.16 µM) was 0.983 and the viability ([1]; 0.8 µM) was 1. The viability ([1]; 4 µM) was 0.938, the viability ([1]; 20 µM) was 0.52 and the viability ([2]; 0.016 µM) was 0.731. It also gave a viability ([2]; 0.08 µM) of 0.182, a viability ([2]; 0.4 µM) of 0.175 and a viability ([2]; 2 µM) of 0.122. The viability ([2]; 10 µM) was 0.108, the viability ([3]; 0.032 µM) was 0.767 and the viability ([3]; 0.16 µM) was 0.798. For the same test system, the viability ([3]; 0.8 µM) was 0.485, the viability ([3]; 4 µM) was 0.272 and the viability ([3]; 20 µM) was 0.15. It also gave a viability ([4]; 0.0032 µM) of 1.02, a viability ([4]; 0.016 µM) of 0.958 and a viability ([4]; 0.08 µM) of 0.959. It also gave a viability ([4]; 0.4 µM) of 0.921, a viability ([4]; 2 µM) of 0.958 and a viability ([5]; 0.032 µM) of 1.08. It also gave a viability ([5]; 0.16 µM) of 1.02, a viability ([5]; 0.8 µM) of 1.09 and a viability ([5]; 4 µM) of 0.93. It also gave a viability ([5]; 20 µM) of 0.649, a viability ([6]; 0.008 µM) of 0.965 and a viability ([6]; 0.04 µM) of 0.985. For the same test system, the viability ([6]; 0.2 µM) was 0.989, the viability ([6]; 1 µM) was 0.931 and the viability ([6]; 5 µM) was 0.858. The viability ([7]; 0.024 µM) was 0.981, the viability ([7]; 0.12 µM) was 0.949 and the viability ([7]; 0.6 µM) was 1.01. For the same test system, the viability ([7]; 3 µM) was 1.03, the viability ([7]; 15 µM) was 0.983 and the viability ([8]; 0.024 µM) was 0.864. The viability ([8]; 0.12 µM) was 1.16, the viability ([8]; 0.6 µM) was 1.01 and the viability ([8]; 3 µM) was 0.902. For the same test system, the viability ([8]; 15 µM) was 0.94, the viability ([9]; 0.032 µM) was 1.01 and the viability ([9]; 0.16 µM) was 0.925. The viability ([9]; 0.8 µM) was 0.976, the viability ([9]; 4 µM) was 1.02 and the viability ([9]; 20 µM) was 1.04. It also gave a viability ([10]; 0.024 µM) of 0.995, a viability ([10]; 0.12 µM) of 0.948 and a viability ([10]; 0.6 µM) of 0.892. The viability ([10]; 3 µM) was 0.998, the viability ([10]; 15 µM) was 0.952 and the viability ([11]; 0.008 µM) was 1.03. The viability ([11]; 0.04 µM) was 1.04, the viability ([11]; 0.2 µM) was 1.05 and the viability ([11]; 1 µM) was 0.866. The viability ([11]; 5 µM) was 0.711, the viability ([12]; 0.024 µM) was 1 and the viability ([12]; 0.12 µM) was 1.1. For the same test system, the viability ([12]; 0.6 µM) was 0.963, the viability ([12]; 3 µM) was 1.06 and the viability ([12]; 15 µM) was 0.959. The viability ([13]; 0.00064 µM) was 1.06, the viability ([13]; 0.0032 µM) was 0.901 and the viability ([13]; 0.016 µM) was 0.804. The viability ([13]; 0.08 µM) was 0.474 and the viability ([13]; 0.4 µM) was 0.238.
